Results reported in US12428651B2, “Transcription factors to improve resistance to environmental stress in plants” (Board of Trustees of Michigan State University, priority 2016, dated 2025).

Assays:
phyB-9 mutant plants = assay: Primary root length in the presence of 15 μM 5-MT, phyB-9 plants overexpressing MYC2 variants; assay type: in vivo, Arabidopsis thaliana; conditions: 14-day-old seedlings, overexpression in phyB-9, normalized to the same genotype without 5-MT
Procedure: Primary root length in the presence of 15 μM 5-MT was evaluated for 14-day-old seedlings of non-transgenic (NT) phyB-9 mutant plants or phyB-9 mutant plants that overexpressed either wild-type (WT) MYC2 or a MYC2^D105N/E165K mutant allele that harbors two point mutations (D105N and E165K) that prevent JAZ binding. Primary root length was determined as the root length of a given genotype grown in the presence of 15 μM 5-MT normalized to the root length of the same genotype grown in the absence of 5-MT.

Arabidopsis = assay: Resistance to 5-methyl tryptophan (5-MT) of transgenic Arabidopsis overexpressing MYC transcription factors; assay type: in vivo, Arabidopsis thaliana; conditions: for 5-MT resistance: overexpression from the 35S promoter, phyB mutant background, 50 μM 5-methyl-tryptophan, 3 weeks, preliminary results
Procedure: Functional analysis of these and other MYC^D transcription factors in planta was performed by overexpressing the transcription factors in Arabidopsis with subsequent testing of the resulting transgenic lines for increased resistance to 5-methyl tryptophan (5-MT), a toxic analog of the amino acid tryptophan.

JAZ proteins = conditions: literature (Goossens et al., 2015; Smolen et al., 2002); cited from earlier work
JAZ10.4 = biological target: T1, JAZ10.4 (Arabidopsis thaliana, UniProt Q93ZM9); assay: Yeast two-hybrid analysis of JAZ10.4 (bait) interaction with wild-type MYC3 and MYC3 point mutants (prey); assay type: binding; conditions: JAZ10.4 bait (CMID, no Jas motif), MYC3 variant prey
T1 construct: expressed in transfected cells; host or cells: yeast (two-hybrid)
T1 sequence (Q93ZM9 1-167 isoform Q93ZM9-3): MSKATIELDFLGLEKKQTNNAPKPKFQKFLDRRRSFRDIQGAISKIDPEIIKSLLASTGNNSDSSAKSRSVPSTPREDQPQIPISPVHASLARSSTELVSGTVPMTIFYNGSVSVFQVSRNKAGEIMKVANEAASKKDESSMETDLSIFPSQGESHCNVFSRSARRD
Procedure: The structural information from the MYC3-CMID complex was used to generate site-directed mutants of MYC3 that have reduced interaction with the JAZ10.4 splice variant, which contains a CMID but not a Jas motif (Chung and Howe 2009). Several promising mutants were made.
(§1) The interactions of mutants MYC3^L152A and MYC3^E148A/M155A with JAZ10.4 and MED25 was evaluated using yeast two-hybrid analyses to visualize MED25 and JAZ10.4 (bait) interactions with wild-type MYC3 and MYC3 point mutants (prey).

MED25 = biological target: T2, MED25 (Arabidopsis thaliana, UniProt Q7XYY2); assay: Yeast two-hybrid analysis of MED25 (bait) interaction with wild-type MYC3 and MYC3 point mutants (prey); assay type: binding; conditions: MYC3 variant prey
T2 construct: expressed in transfected cells; host or cells: yeast (two-hybrid)
T2 sequence (Q7XYY2 1-836): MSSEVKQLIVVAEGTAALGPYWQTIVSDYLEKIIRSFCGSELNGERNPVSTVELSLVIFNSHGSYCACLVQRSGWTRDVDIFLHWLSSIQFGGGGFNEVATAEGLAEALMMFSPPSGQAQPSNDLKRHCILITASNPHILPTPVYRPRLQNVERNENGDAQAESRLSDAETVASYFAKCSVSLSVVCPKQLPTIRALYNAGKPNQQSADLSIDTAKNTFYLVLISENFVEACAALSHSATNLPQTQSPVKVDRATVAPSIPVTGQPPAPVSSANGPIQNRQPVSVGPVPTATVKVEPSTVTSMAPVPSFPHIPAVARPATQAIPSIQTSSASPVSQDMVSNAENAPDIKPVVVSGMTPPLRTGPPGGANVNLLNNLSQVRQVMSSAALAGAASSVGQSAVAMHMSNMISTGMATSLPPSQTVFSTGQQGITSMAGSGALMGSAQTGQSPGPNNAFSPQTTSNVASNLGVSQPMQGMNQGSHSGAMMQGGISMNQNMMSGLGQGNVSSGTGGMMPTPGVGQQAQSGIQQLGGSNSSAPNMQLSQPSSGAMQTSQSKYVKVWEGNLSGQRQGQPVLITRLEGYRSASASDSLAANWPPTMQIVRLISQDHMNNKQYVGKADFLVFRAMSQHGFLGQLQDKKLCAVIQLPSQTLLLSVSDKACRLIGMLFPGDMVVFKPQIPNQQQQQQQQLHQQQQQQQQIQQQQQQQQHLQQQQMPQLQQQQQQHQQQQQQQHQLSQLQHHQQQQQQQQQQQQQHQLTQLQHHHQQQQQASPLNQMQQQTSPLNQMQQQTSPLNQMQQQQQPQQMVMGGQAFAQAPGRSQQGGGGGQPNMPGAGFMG
Procedure: as §1

In the case of “MYC2^D105N/E165K: MYC2 mutant allele that harbors two point mutations (D105N and E165K) that prevent JAZ binding”, the primary root length (phyB-9 mutant plants) was “best primary root growth”.

In the case of “MYC3^D94N: dominant MYC3 variant (atr2D allele), Asp-to-Asn missense mutation in the JAZ-interacting domain”, the 5-MT resistance (Arabidopsis) is given as “confers 5-MT resistance” and the “interaction with most JAZ proteins” value (JAZ proteins) is given as “fail to interact”.

With MYC3^E148A/M155A the JAZ10.4 interaction (JAZ10.4) was “strongly reduced” and the MED25 interaction (MED25) was “still interacted”.

In the case of MYC3^L152A, the JAZ10.4 interaction (JAZ10.4) was “strongly reduced” and the MED25 interaction (MED25) was “still interacted”.

For “tomato MYC2 D132N: tomato (Solanum lycopersicum) MYC2 protein with SEQ ID NO:19 modified to have a D132N mutation”, the “resistance to 5-MT” value (Arabidopsis; tomato MYC2 variant overexpressed in Arabidopsis, data not shown) was “confers resistance”.

With “wild type MYC2: Arabidopsis thaliana MYC2 sequence, SEQ ID NO:1 [reference compound]” the primary root length (phyB-9 mutant plants) was “improves primary root length”.

For “wild-type MYC3: Arabidopsis thaliana MYC3 sequence, SEQ ID NO:3”, the 5-MT resistance (Arabidopsis) was “not”.
